{"source": "patent US8680272B2", "about": "“3-arylethynyl substituted quinazolinone compounds” (Council of Scientific & Industrial Research, priority 2011, dated 2014)", "key": {"[1]": {"test_system": "HS 578T", "assay": "Anticancer activity, SRB assay, breast cell line HS 578T", "type": "cell-based, human", "details": "Breast HS 578T; 48 h continuous drug exposure; —^b means GI50 values not attained at the concentrations used", "procedure": "(§1) Some of biological activity studies were carried out at the National Cancer Institute (NCI), Maryland, USA.\n(§2) The compounds were evaluated for anticancer activity against sixty human cancer cells derived from nine cancer types (leukemia cell line, non-small-cell lung cell line, colon cell line, CNS cell line, melanoma cell line, ovarian cell line, prostate cell line, renal cell line and breast cancer cell line) as shown in Table 1. For each compound, dose response curves for each cell line were measured at a minimum of five concentrations at 10 fold dilutions. A protocol of 48 h continuous drug exposure was used and a sulforhodamine B (SRB) protein assay was used to estimate cell viability or growth."}, "[2]": {"test_system": "SW-620", "assay": "Anticancer activity, SRB assay, colon cell line SW-620", "type": "cell-based", "details": "Homo sapiens; Colon SW-620; 48 h continuous drug exposure; read-out: Growth Inhibition GI50", "procedure": "as §1, §2"}, "[3]": {"test_system": "KM12", "assay": "Anticancer activity, SRB assay, colon cell line KM12", "type": "cell-based", "details": "Homo sapiens, 48 h continuous drug exposure, read-out: Growth Inhibition GI50", "procedure": "as §1, §2"}, "[4]": {"test_system": "OVCAR-4", "assay": "Anticancer activity, SRB assay, ovarian cell line OVCAR-4", "type": "cell-based, human", "details": "Ovarian OVCAR-4; 48 h continuous drug exposure; —^b means GI50 values not attained at the concentrations used", "procedure": "as §1, §2"}, "[5]": {"test_system": "MCF7", "assay": "Anticancer activity, SRB assay, breast cell line MCF7", "type": "cell-based", "details": "Homo sapiens, 48 h continuous drug exposure, read-out: Growth Inhibition GI50", "procedure": "as §1, §2"}, "[6]": {"test_system": "CAKI-1", "assay": "Anticancer activity, SRB assay, renal cell line CAKI-1", "type": "cell-based", "details": "Homo sapiens; Renal CAKI-1; 48 h continuous drug exposure; read-out: Growth Inhibition GI50", "procedure": "as §1, §2"}, "[7]": {"test_system": "HCC-2998", "assay": "Anticancer activity, SRB assay, colon cell line HCC-2998", "type": "cell-based, human", "details": "Colon HCC-2998; 48 h continuous drug exposure; —^b means GI50 values not attained at the concentrations used", "procedure": "as §1, §2"}, "[8]": {"test_system": "HOP-92", "assay": "Anticancer activity, SRB assay, non-small lung cell line HOP-92", "type": "cell-based, human", "details": "Non-small lung HOP-92; 48 h continuous drug exposure; —^b means GI50 values not attained at the concentrations used", "procedure": "as §1, §2"}, "[9]": {"test_system": "HL-60(TB)", "assay": "Anticancer activity, SRB assay, leukemia cell line HL-60(TB)", "type": "cell-based", "details": "Homo sapiens; Leukemia HL-60(TB); 48 h continuous drug exposure; read-out: Growth Inhibition GI50", "procedure": "as §1, §2"}, "[10]": {"test_system": "eight renal cancer cell line (786-0, A498, ACHN, CAKI-1, SN12C, TK-10, UO-31 and RXF 393)", "assay": "Anticancer activity, SRB assay, renal panel", "type": "cell-based, human", "set-up": "mean graph midpoint values (MG_MID) of Log10LC50 / mean graph midpoint values (MG_MID) of log10 TGI (Log10TGI50): unit not given here", "procedure": "as §1, §2"}, "[11]": {"test_system": "sixty human cancer cell lines derived from nine cancer types", "assay": "Anticancer activity against sixty human cancer cell lines", "type": "cell-based", "procedure": "as §1, §2"}, "[12]": {"test_system": "six leukemia cancer cell lines (CCRF-CEM, HL-60, K-562, MOLT-4, SR and RPMI-8226)", "assay": "Anticancer activity, SRB assay, leukemia panel", "type": "cell-based, human", "procedure": "as §1, §2"}, "[13]": {"test_system": "seven colon cancer cell line (COLO 205, HCC-2998, HCT-116, HCT-15, HT29, KM12 and SW-620)", "assay": "Anticancer activity, SRB assay, colon panel", "type": "cell-based, human", "procedure": "as §1, §2"}, "[14]": {"test_system": "NCI-H226", "assay": "Anticancer activity, SRB assay, non-small lung cell line NCI-H226", "type": "cell-based, human", "details": "Non-small lung NCl-H226; 48 h continuous drug exposure; —^b means GI50 values not attained at the concentrations used", "procedure": "as §1, §2"}, "[15]": {"test_system": "seven ovarian cancer cell lines (IGROV1, OVCAR-3, OVCAR-4, OVCAR-5, OVCAR-8, NCI/ADR-RES and SK-OV-3)", "assay": "Anticancer activity, SRB assay, ovarian panel", "type": "cell-based, human", "procedure": "as §1, §2"}, "[16]": {"test_system": "SK-MEL-5", "assay": "Anticancer activity, SRB assay, melanoma cell line SK-MEL-5", "type": "cell-based", "details": "Homo sapiens; Melanoma SK-MEL-5; 48 h continuous drug exposure; read-out: Growth Inhibition GI50", "procedure": "as §1, §2"}, "[17]": {"test_system": "UACC-257", "assay": "Anticancer activity, SRB assay, melanoma cell line UACC-257", "type": "cell-based", "details": "Homo sapiens; Melanoma UACC-257; 48 h continuous drug exposure; read-out: Growth Inhibition GI50", "procedure": "as §1, §2"}, "[18]": {"test_system": "MDA-MB-231/ATCC", "assay": "Anticancer activity, SRB assay, breast cell line MDA-MB-231/ATCC", "type": "cell-based", "details": "Homo sapiens; Breast MDA-MB-231/ATCC; 48 h continuous drug exposure; read-out: Growth Inhibition GI50", "procedure": "as §1, §2"}, "[19]": {"test_system": "UO-31", "assay": "Anticancer activity, SRB assay, renal cell line UO-31", "type": "cell-based, human", "details": "Renal UO-31; 48 h continuous drug exposure; —^b means GI50 values not attained at the concentrations used", "procedure": "as §1, §2"}, "[20]": {"test_system": "HCT-116", "assay": "Anticancer activity, SRB assay, colon cell line HCT-116", "type": "cell-based", "details": "Homo sapiens; Colon HCT-116; 48 h continuous drug exposure; read-out: Growth Inhibition GI50", "procedure": "as §1, §2"}, "[21]": {"test_system": "SK-OV-3", "assay": "Anticancer activity, SRB assay, ovarian cell line SK-OV-3", "type": "cell-based, human", "details": "Ovarian SK-OV-3; 48 h continuous drug exposure; —^b means GI50 values not attained at the concentrations used", "procedure": "as §1, §2"}, "[22]": {"test_system": "six CNS cancer cell line (SF-268, SF-295, SF-539, SNB-19, SNB-75 and U251)", "assay": "Anticancer activity, SRB assay, CNS panel", "type": "cell-based, human", "procedure": "as §1, §2"}, "[23]": {"test_system": "SK-MEL-2", "assay": "Anticancer activity, SRB assay, melanoma cell line SK-MEL-2", "type": "cell-based, human", "details": "Melanoma SK-MEL-2; 48 h continuous drug exposure; —^b means GI50 values not attained at the concentrations used", "procedure": "as §1, §2"}, "[24]": {"test_system": "SK-MEL-28", "assay": "Anticancer activity, SRB assay, melanoma cell line SK-MEL-28", "type": "cell-based, human", "details": "Melanoma SK-MEL-28; 48 h continuous drug exposure; —^b means GI50 values not attained at the concentrations used", "procedure": "as §1, §2"}}}
{"smiles": "COc1ccc2cc(C#Cc3ccc(-n4c(/C=C/c5cc(OC)c(OC)c(OC)c5)nc5ccccc5c4=O)c(C)c3)ccc2c1", "note": "[Compound 6l, (E)-3-(4-((6-Methoxynaphthalen-2-yl)ethynyl)-2-methylphenyl)-2-(3,4,5-trimethoxystyryl)quinazolin-4(3H)-one]", "values": [{"measurement": "Growth Inhibition GI50", "setting": "[1]", "result": "—^b"}, {"measurement": "GI50", "setting": "[2]", "result": 17.2, "unit": "µM"}, {"measurement": "GI50", "setting": "[3]", "result": 4.3, "unit": "µM"}, {"measurement": "Growth Inhibition GI50", "setting": "[4]", "result": "—^b"}, {"measurement": "GI50", "setting": "[5]", "result": 63.8, "unit": "µM"}, {"measurement": "GI50", "setting": "[6]", "result": 4.91, "unit": "µM"}, {"measurement": "Growth Inhibition GI50", "setting": "[7]", "result": "—^b"}, {"measurement": "Growth Inhibition GI50", "setting": "[8]", "result": "—^b"}, {"measurement": "GI50", "setting": "[9]", "result": 686, "unit": "nM"}, {"measurement": "GI50", "setting": "[10]; Homo sapiens, eight renal cancer cell line, exposure period of at least 48 h, read-out: in vitro anticancer activity (range over the panel)", "result": 4.91, "unit": "µM"}, {"measurement": "mean graph midpoint values (MG_MID) of log10 TGI (Log10TGI50)", "setting": "[10]; Renal, log value of concentration of the compound resulting in total inhibition of net cell growth", "result": ">−4.00"}, {"measurement": "mean graph midpoint values (MG_MID) of Log10LC50", "setting": "[10]; Renal, log value of the concentration of compounds leading to 50% net cell death", "result": ">−4.00"}, {"measurement": "mean graph midpoint values (MG_MID) of Log10GI50", "setting": "[10]; Renal, log values of concentration in mol/L causing 50% inhibition of net cell growth", "result": "−4.16", "unit": "mol/L"}, {"measurement": "in vitro anticancer activity (in words)", "setting": "[11]", "result": "exhibiting an in vitro anticancer activity"}, {"measurement": "GI50", "setting": "[12]; Homo sapiens, six leukemia cancer cell lines, exposure period of at least 48 h, read-out: GI50 (range over the panel)", "result": "395 to 4660", "unit": "nM"}, {"measurement": "mean graph midpoint values (MG_MID) of log10 TGI (Log10TGI50)", "setting": "[12]; Leukemia, log value of concentration of the compound resulting in total inhibition of net cell growth", "result": ">−4.00"}, {"measurement": "mean graph midpoint values (MG_MID) of Log10LC50", "setting": "[12]; Leukemia, log value of the concentration of compounds leading to 50% net cell death", "result": ">−4.00"}, {"measurement": "mean graph midpoint values (MG_MID) of Log10GI50", "setting": "[12]; Leukemia, log values of concentration in mol/L causing 50% inhibition of net cell growth", "result": "−5.67", "unit": "mol/L"}, {"measurement": "mean graph midpoint values (MG_MID) of log10 TGI (Log10TGI50)", "setting": "[13]; Colon, log value of concentration of the compound resulting in total inhibition of net cell growth", "result": ">−4.00"}, {"measurement": "mean graph midpoint values (MG_MID) of Log10LC50", "setting": "[13]; Colon, log value of the concentration of compounds leading to 50% net cell death", "result": ">−4.00"}, {"measurement": "mean graph midpoint values (MG_MID) of Log10GI50", "setting": "[13]; Colon, log values of concentration in mol/L causing 50% inhibition of net cell growth", "result": "−5.16", "unit": "mol/L"}, {"measurement": "GI50", "setting": "[13]; Homo sapiens, seven colon cancer cell line, exposure period of at least 48 h, read-out: GI50 (range over the panel)", "result": "1.22 to 17.2", "unit": "µM"}, {"measurement": "Growth Inhibition GI50", "setting": "[14]", "result": "—^b"}, {"measurement": "GI50", "setting": "[15]; Homo sapiens, seven ovarian cancer cell lines, exposure period of at least 48 h, read-out: GI50 (range over the panel)", "result": 19.3, "unit": "µM"}, {"measurement": "mean graph midpoint values (MG_MID) of log10 TGI (Log10TGI50)", "setting": "[15]; Ovarian, log value of concentration of the compound resulting in total inhibition of net cell growth", "result": ">−4.00"}, {"measurement": "mean graph midpoint values (MG_MID) of Log10LC50", "setting": "[15]; Ovarian, log value of the concentration of compounds leading to 50% net cell death", "result": ">−4.00"}, {"measurement": "mean graph midpoint values (MG_MID) of Log10GI50", "setting": "[15]; Ovarian, log values of concentration in mol/L causing 50% inhibition of net cell growth", "result": "−4.10", "unit": "mol/L"}, {"measurement": "GI50", "setting": "[16]", "result": 1850, "unit": "nM"}, {"measurement": "GI50", "setting": "[17]", "result": 6.24, "unit": "µM"}, {"measurement": "GI50", "setting": "[18]", "result": 37, "unit": "µM"}, {"measurement": "Growth Inhibition GI50", "setting": "[19]", "result": "—^b"}, {"measurement": "GI50", "setting": "[20]", "result": 3.53, "unit": "µM"}, {"measurement": "Growth Inhibition GI50", "setting": "[21]", "result": "—^b"}, {"measurement": "mean graph midpoint values (MG_MID) of log10 TGI (Log10TGI50)", "setting": "[22]; CNS, log value of concentration of the compound resulting in total inhibition of net cell growth", "result": ">−4.00"}, {"measurement": "mean graph midpoint values (MG_MID) of Log10LC50", "setting": "[22]; CNS, log value of the concentration of compounds leading to 50% net cell death", "result": ">−4.00"}, {"measurement": "mean graph midpoint values (MG_MID) of Log10GI50", "setting": "[22]; CNS, log values of concentration in mol/L causing 50% inhibition of net cell growth", "result": "−4.18", "unit": "mol/L"}, {"measurement": "GI50", "setting": "[22]; Homo sapiens, six CNS cancer cell line, exposure period of at least 48 h, read-out: GI50 (range over the panel)", "result": 7.4, "unit": "µM"}, {"measurement": "Growth Inhibition GI50", "setting": "[23]", "result": "—^b"}, {"measurement": "Growth Inhibition GI50", "setting": "[24]", "result": "—^b"}]}
